Target: T1, PTH receptor (Mus musculus, UniProt P41593)
T1 construct: a mouse cranial bone-derived osteoblast-like cell strain, MC3T3-EI cells, cultivated on a 96-well multiplate; endogenous in cells; host or cells: MC3T3-E1 mouse osteoblast-like cells
T1 sequence (P41593 27-591): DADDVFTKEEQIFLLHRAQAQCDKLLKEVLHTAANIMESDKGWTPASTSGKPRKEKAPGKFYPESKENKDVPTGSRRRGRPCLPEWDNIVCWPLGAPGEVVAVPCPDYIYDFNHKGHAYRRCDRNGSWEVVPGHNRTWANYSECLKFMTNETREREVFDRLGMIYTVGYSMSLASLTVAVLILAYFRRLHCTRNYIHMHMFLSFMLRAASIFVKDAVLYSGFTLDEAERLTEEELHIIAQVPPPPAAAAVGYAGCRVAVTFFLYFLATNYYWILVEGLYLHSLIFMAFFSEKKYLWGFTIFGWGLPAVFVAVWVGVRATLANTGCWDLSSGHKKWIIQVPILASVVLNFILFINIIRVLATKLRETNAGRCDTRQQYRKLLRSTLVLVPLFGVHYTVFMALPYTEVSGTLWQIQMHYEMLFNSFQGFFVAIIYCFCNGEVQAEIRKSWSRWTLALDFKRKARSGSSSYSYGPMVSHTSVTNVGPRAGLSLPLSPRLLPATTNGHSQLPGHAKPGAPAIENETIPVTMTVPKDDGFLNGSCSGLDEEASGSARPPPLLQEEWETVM
Assay: cAMP production by PTH (1-34) analogues in MC3T3-EI osteoblast-like cells
Format: cell-based
Conditions: for Biological Activity (Represented by Relative Activity to hPTH(1-34)): cAMP production, 0.01-100 nM analogue, room temperature 30 minutes, hPTH(1-34) = 1.00
Experimental: The biological activity of the peptide analogues was evaluated by a modified version of the method reported by Shigeno et al. in The Journal of Biological Chemistry 263, 18369-18377 (1988). A culture solution (Hank's solution, containing 20 mM N-2-hydroxyethylpiperazine-N'-2-ethanesulfonic acid (HEPES), 0.1% bovine serum albumin and 0.5 mM isobutylmethyl-xanthine) containing 0.01, 0.1, 1, 10 or 100 nM analogue was added in an amount of 100 μto a mouse cranial bone-derived osteoblast-like cell strain, MC3T3-EI cells, cultivated on a 96-well multiplate (Nunclon, Nunc), followed by reaction at room temperature for 30 minutes. After addition of 100 μof 0.2N hydrochloric acid, the mixture was immersed in boiling water for 2.5 minutes, and cyclic adenosine monophosphate (cAMP) produced by a PTH receptor was extracted from the cells. The total cAMP in the culture solution and the cells was assayed using a commercial radioimmunoassay kit (cyclic AMP [^125 I] kit "Du Pont-Daiichi", Daiichi Kagaku Yakuhin).

Biological Activity (Represented by Relative Activity to hPTH(1-34)) | Compound | cAMP production of the standard (human PTH (1-34) added as a standard, 0.01-100 nM)
1.3 | CC[C@H](C)[C@H](NC(=O)[C@H](CCC(=O)O)NC(=O)[C@H](CO)NC(=O)[C@@H](NC(=O)[C@@H](N)CO)C(C)C)C(=O)N[C@@H](CCC(N)=O)C(=O)N[C@@H](CC(C)C)C(=O)N[C@@H](CCSC)C(=O)N[C@@H](Cc1c[nH]cn1)C(=O)N[C@@H](CC(N)=O)C(=O)N[C@@H](Cc1ccccc1)C(=O)NCC(=O)N[C@@H](CCCCN)C(=O)N[C@@H](Cc1c[nH]cn1)C(=O)N[C@@H](CC(C)C)C(=O)N[C@@H](CC(N)=O)C(=O)N[C@@H](CO)C(=O)N[C@@H](CCSC)C(=O)N[C@@H](CCC(=O)O)C(=O)N[C@@H](CCCNC(=N)N)C(=O)N[C@H](C(=O)N[C@@H](CCC(=O)O)C(=O)N[C@@H](Cc1c[nH]c2ccccc12)C(=O)N[C@@H](CC(C)C)C(=O)N[C@@H](CCCNC(=N)N)C(=O)N[C@@H](CCCCN)C(=O)N[C@@H](CCCCN)C(=O)N[C@@H](CC(C)C)C(=O)N[C@@H](CCC(N)=O)C(=O)N[C@@H](CC(=O)O)C(=O)N[C@H](C(=O)N[C@@H](Cc1c[nH]cn1)C(=O)N[C@@H](CC(N)=O)C(=O)N[C@@H](Cc1ccccc1)C(N)=O)C(C)C)C(C)C [[Phe^11] hPTH (1-34)NH2, (Phe^11)hPTH(1-34)NH2] | –
0.4 | CC[C@H](C)[C@H](NC(=O)[C@H](CCC(=O)O)NC(=O)[C@H](CO)NC(=O)[C@@H](NC(=O)[C@@H](N)CO)C(C)C)C(=O)N[C@@H](CCC(N)=O)C(=O)N[C@@H](CC(C)C)C(=O)N[C@@H](CCSC)C(=O)N[C@@H](Cc1c[nH]cn1)C(=O)N[C@@H](CC(N)=O)C(=O)N[C@@H](CC(C)C)C(=O)NCC(=O)N[C@@H](CCCCN)C(=O)N[C@@H](Cc1c[nH]cn1)C(=O)N[C@@H](CC(C)C)C(=O)N[C@@H](CC(N)=O)C(=O)N[C@@H](CO)C(=O)N[C@@H](CC(C)C)C(=O)N[C@@H](CCC(=O)O)C(=O)N[C@@H](CCCNC(=N)N)C(=O)N[C@H](C(=O)N[C@@H](CCC(=O)O)C(=O)N[C@@H](Cc1c[nH]c2ccccc12)C(=O)N[C@@H](CC(C)C)C(=O)N[C@@H](CCCNC(=N)N)C(=O)N[C@@H](CCCCN)C(=O)N[C@@H](CCCCN)C(=O)N[C@@H](CC(C)C)C(=O)N[C@@H](CCC(N)=O)C(=O)N[C@@H](CC(=O)O)C(=O)N[C@H](C(=O)N[C@@H](Cc1c[nH]cn1)C(=O)N[C@@H](CC(N)=O)C(=O)N[C@@H](Cc1ccccc1)C(=O)O)C(C)C)C(C)C [[Leu^18] hPTH (1-34), (Leu^18)hPTH(1-34)] | –
1.00 | CC[C@H](C)[C@H](NC(=O)[C@H](CCC(=O)O)NC(=O)[C@H](CO)NC(=O)[C@@H](NC(=O)[C@@H](N)CO)C(C)C)C(=O)N[C@@H](CCC(N)=O)C(=O)N[C@@H](CC(C)C)C(=O)N[C@@H](CCSC)C(=O)N[C@@H](Cc1c[nH]cn1)C(=O)N[C@@H](CC(N)=O)C(=O)N[C@@H](CC(C)C)C(=O)NCC(=O)N[C@@H](CCCCN)C(=O)N[C@@H](Cc1c[nH]cn1)C(=O)N[C@@H](CC(C)C)C(=O)N[C@@H](CC(N)=O)C(=O)N[C@@H](CO)C(=O)N[C@@H](CCSC)C(=O)N[C@@H](CCC(=O)O)C(=O)N[C@@H](CCCNC(=N)N)C(=O)N[C@H](C(=O)N[C@@H](CCC(=O)O)C(=O)N[C@@H](Cc1c[nH]c2ccccc12)C(=O)N[C@@H](CC(C)C)C(=O)N[C@@H](CCCNC(=N)N)C(=O)N[C@@H](CCCCN)C(=O)N[C@@H](CCCCN)C(=O)N[C@@H](CC(C)C)C(=O)N[C@@H](CCC(N)=O)C(=O)N[C@@H](CC(=O)O)C(=O)N[C@H](C(=O)N[C@@H](Cc1c[nH]cn1)C(=O)N[C@@H](CC(N)=O)C(=O)N[C@@H](Cc1ccccc1)C(=O)O)C(C)C)C(C)C [hPTH (1-34), hPTH(1-34), reference compound] | increase in cAMP production depending on the concentration

More lines, now with the values behind:

Compound | Biological Activity (Represented by Relative Activity to hPTH(1-34)) | cAMP production of the standard (human PTH (1-34) added as a standard, 0.01-100 nM)
CC[C@H](C)[C@H](NC(=O)[C@H](CCC(=O)O)NC(=O)[C@H](CO)NC(=O)[C@@H](NC(=O)[C@@H](N)CO)C(C)C)C(=O)N[C@@H](CCC(N)=O)C(=O)N[C@@H](CC(C)C)C(=O)N[C@@H](CCSC)C(=O)N[C@@H](Cc1c[nH]cn1)C(=O)N[C@@H](CC(N)=O)C(=O)N[C@@H](CC(C)C)C(=O)NCC(=O)N[C@@H](CCCCN)C(=O)N[C@@H](Cc1c[nH]cn1)C(=O)N[C@@H](CC(C)C)C(=O)N[C@@H](CC(N)=O)C(=O)N[C@@H](CO)C(=O)N[C@@H](CCSC)C(=O)N[C@@H](CCC(=O)O)C(=O)N[C@@H](CCCNC(=N)N)C(=O)N[C@H](C(=O)N[C@@H](CCC(=O)O)C(=O)N[C@@H](Cc1c[nH]c2ccccc12)C(=O)N[C@@H](CC(C)C)C(=O)N[C@@H](CCCNC(=N)N)C(=O)N[C@@H](Cc1c[nH]cn1)C(=O)N[C@@H](CCCCN)C(=O)N[C@@H](CC(C)C)C(=O)N[C@@H](CCC(N)=O)C(=O)N[C@@H](CC(=O)O)C(=O)N[C@H](C(=O)N[C@@H](Cc1c[nH]cn1)C(=O)N[C@@H](CC(N)=O)C(=O)N[C@@H](Cc1ccccc1)C(N)=O)C(C)C)C(C)C [[His^26] hPTH (1-34)NH2, (His^26)hPTH(1-34(NH2] | 0.9 | –
(Arg^19,21)hPTH(1-34)NH2 [[Arg^13, 21] hPTH (1-34)NH2] | 0.9 | –
CC[C@H](C)[C@H](NC(=O)[C@H](CCC(=O)O)NC(=O)[C@H](CO)NC(=O)[C@@H](NC(=O)[C@@H](N)CO)C(C)C)C(=O)N[C@@H](CCC(N)=O)C(=O)N[C@@H](CC(C)C)C(=O)N[C@@H](CC(C)C)C(=O)N[C@@H](Cc1c[nH]cn1)C(=O)N[C@@H](CC(N)=O)C(=O)N[C@@H](CC(C)C)C(=O)NCC(=O)N[C@@H](CCCCN)C(=O)N[C@@H](Cc1c[nH]cn1)C(=O)N[C@@H](CC(C)C)C(=O)N[C@@H](CC(N)=O)C(=O)N[C@@H](CO)C(=O)N[C@@H](CCSC)C(=O)N[C@@H](CCC(=O)O)C(=O)N[C@@H](CCCNC(=N)N)C(=O)N[C@H](C(=O)N[C@@H](CCC(=O)O)C(=O)N[C@@H](Cc1c[nH]c2ccccc12)C(=O)N[C@@H](CC(C)C)C(=O)N[C@@H](CCCNC(=N)N)C(=O)N[C@@H](CCCCN)C(=O)N[C@@H](CCCCN)C(=O)N[C@@H](CC(C)C)C(=O)N[C@@H](CCC(N)=O)C(=O)N[C@@H](CC(=O)O)C(=O)N[C@H](C(=O)N[C@@H](Cc1c[nH]cn1)C(=O)N[C@@H](CC(N)=O)C(=O)N[C@@H](Cc1ccccc1)C(N)=O)C(C)C)C(C)C [[Leu^8] hPTH (1-34)NH2, (Leu^8)hPTH(1-34)NH2] | 0.5 | –
CC[C@H](C)[C@H](NC(=O)[C@H](CCC(=O)O)NC(=O)[C@H](CO)NC(=O)[C@@H](NC(=O)[C@@H](N)CO)C(C)C)C(=O)N[C@@H](CCC(N)=O)C(=O)N[C@@H](CC(C)C)C(=O)N[C@@H](CCSC)C(=O)N[C@@H](Cc1c[nH]cn1)C(=O)N[C@@H](CC(N)=O)C(=O)N[C@@H](CC(C)C)C(=O)NCC(=O)N[C@@H](CCCCN)C(=O)N[C@@H](Cc1c[nH]cn1)C(=O)N[C@@H](CC(C)C)C(=O)N[C@@H](CC(N)=O)C(=O)N[C@@H](CO)C(=O)N[C@@H](CCSC)C(=O)N[C@@H](CCC(=O)O)C(=O)N[C@@H](CCCNC(=N)N)C(=O)N[C@H](C(=O)N[C@@H](CCC(=O)O)C(=O)N[C@@H](Cc1c[nH]c2ccccc12)C(=O)N[C@@H](CC(C)C)C(=O)N[C@@H](Cc1c[nH]cn1)C(=O)N[C@@H](CCCCN)C(=O)N[C@@H](CCCCN)C(=O)N[C@@H](CC(C)C)C(=O)N[C@@H](CCC(N)=O)C(=O)N[C@@H](CC(=O)O)C(=O)N[C@H](C(=O)N[C@@H](Cc1c[nH]cn1)C(=O)N[C@@H](CC(N)=O)C(=O)N[C@@H](Cc1ccccc1)C(=O)O)C(C)C)C(C)C [[His^25] hPTH (1-34), (His^25)hPTH(1-34)] | 1.0 | –
CC[C@H](C)[C@H](NC(=O)[C@H](CCC(=O)O)NC(=O)[C@H](CO)NC(=O)[C@@H](NC(=O)[C@@H](N)CO)C(C)C)C(=O)N[C@@H](CCC(N)=O)C(=O)N[C@@H](CC(C)C)C(=O)N[C@@H](CCSC)C(=O)N[C@@H](Cc1c[nH]cn1)C(=O)N[C@@H](CC(N)=O)C(=O)N[C@@H](CC(C)C)C(=O)NCC(=O)N[C@@H](CCCCN)C(=O)N[C@@H](Cc1c[nH]cn1)C(=O)N[C@@H](CC(C)C)C(=O)N[C@@H](CC(N)=O)C(=O)N[C@@H](CO)C(=O)N[C@@H](CCSC)C(=O)N[C@@H](CCC(=O)O)C(=O)N[C@@H](CCCNC(=N)N)C(=O)N[C@H](C(=O)N[C@@H](CCC(=O)O)C(=O)N[C@@H](Cc1c[nH]c2ccccc12)C(=O)N[C@@H](CC(C)C)C(=O)N[C@@H](CCCNC(=N)N)C(=O)N[C@@H](CCCCN)C(=O)N[C@@H](CCC(N)=O)C(=O)N[C@@H](CC(C)C)C(=O)N[C@@H](CCC(N)=O)C(=O)N[C@@H](CC(=O)O)C(=O)N[C@H](C(=O)N[C@@H](Cc1c[nH]cn1)C(=O)N[C@@H](CC(N)=O)C(=O)N[C@@H](Cc1ccccc1)C(=O)O)C(C)C)C(C)C [[Gln^27] hPTH (1-34), (Gln^27)hPTH(1-34)] | 2.5 | –

Reference: patent publication US5393869A, “Parathyroid hormone derivatives” (Takeda Chemical Industries, Ltd., priority 1990, dated 1995)
